Reference: patent US20090275583A1, “ANTIVIRAL COMPOUNDS AND USE THEREOF” (Myriad Genetics, Incorporated, priority 2006, published 2009)

System: HIV-1NL4-3
Experiment: P4-MAGI assay
Format: cell-based
Conditions: Human immunodeficiency virus 1, 24 h, P4 cells, 24 hour incubation, β-galactosidase expression; read-out: P4-MAGI IC50
Excerpt: P4 cells were used to test the effects of compounds on virus fusion activity. P4 cells are HIV-1 infectable CD4^+ HeLa cells that bear the bacterial lacZ gene under the control of a minimal HIV-1 LTR. Charneau, et. al., J. Mol. Biol. 241:651-662 (1994). When these cells are infected with HIV-1, β-galactosidase is expressed due to Tat activation of the viral LTR. In this assay, P4 cells were infected with the laboratory adapted strain HIV-1NL4-3 at a multiplicity of infection of 1 in the presence of DEAE-Dextran. Immediately after addition of virus to the cells, increasing concentrations of compound were added to the cells. […] The effect on cell viability (TC50, concentration of compound that inhibits growth by 50%) was determined in mock-infected cells with the WST-1 Cell Proliferation Reagent (Roche Diagnostics).

SMILES | IC50 [nM]
CC(O)(CO)[C@@H]1CC[C@]2(C(=O)NCc3cccc(C(=O)NCCCCC(=O)O)c3)CC[C@]3(C)C(CCC4[C@@]5(C)CC[C@H](O)C(C)(C)C5CC[C@]43C)C12 (single isomer, unassigned) [Example 139] | 1500
C=C(C)[C@@H]1CC[C@]2(C(=O)NCc3cccc(C(=O)NCc4ccccc4C(=O)O)c3)CC[C@]3(C)C(CCC4[C@@]5(C)CC[C@H](O)C(C)(C)C5CC[C@]43C)C12 (stereo partly shown) [Example 8] | 875
C=C(C)[C@@H]1CC[C@]2(C(=O)NCc3cccc(C(=O)NCCc4cccc(C(=O)O)c4)c3)CC[C@]3(C)C(CCC4[C@@]5(C)CC[C@H](O)C(C)(C)C5CC[C@]43C)C12 (stereo partly shown) [Example 11] | 55
C=C(C)[C@@H]1CC[C@]2(C(=O)NCc3cccc(C(=O)Nc4ccc(O)c(C(=O)O)c4)c3)CC[C@]3(C)C(CCC4[C@@]5(C)CC[C@H](O)C(C)(C)C5CC[C@]43C)C12 (stereo partly shown) [Example 12] | 7200
C=C(C)[C@@H]1CC[C@]2(C(=O)NCc3cccc(C(=O)Nc4ccc(C(=O)O)cc4)c3)CC[C@]3(C)C(CCC4[C@@]5(C)CC[C@H](O)C(C)(C)C5CC[C@]43C)C12 (stereo partly shown) [Example 14] | 1800
C=C(C)[C@@H]1CC[C@]2(C(=O)NCc3cccc(C(=O)Nc4cccc(C(=O)O)c4)c3)CC[C@]3(C)C(CCC4[C@@]5(C)CC[C@H](O)C(C)(C)C5CC[C@]43C)C12 (stereo partly shown) [Example 15] | 320
C=C(C)[C@@H]1CC[C@]2(C(=O)NCc3cccc(C(=O)NC4(Cc5ccc(C(=O)O)cc5)CC4)c3)CC[C@]3(C)C(CCC4[C@@]5(C)CC[C@H](O)C(C)(C)C5CC[C@]43C)C12 (stereo partly shown) [Example 28] | 1200
C=C(C)[C@@H]1CC[C@]2(C(=O)NCc3cccc(C(=O)NCc4cccc(Br)c4)c3)CC[C@]3(C)C(CCC4[C@@]5(C)CC[C@H](O)C(C)(C)C5CC[C@]43C)C12 (stereo partly shown) [Example 30] | 410
C=C(C)[C@@H]1CC[C@]2(C(=O)NCc3cccc(C(=O)NCc4cc(C(=O)O)ccn4)c3)CC[C@]3(C)C(CCC4[C@@]5(C)CC[C@H](O)C(C)(C)C5CC[C@]43C)C12 (stereo partly shown) [Example 31] | 573
C=C(C)[C@@H]1CC[C@]2(C(=O)NCc3cccc(C(=O)NCCc4cc(OC)cc(OC)c4)c3)CC[C@]3(C)C(CCC4[C@@]5(C)CC[C@H](O)C(C)(C)C5CC[C@]43C)C12 (stereo partly shown) [Example 44] | 52
C=C(C)[C@@H]1CC[C@]2(C(=O)NCc3cccc(C(=O)NCc4ccc(OC)cc4OC)c3)CC[C@]3(C)C(CCC4[C@@]5(C)CC[C@H](O)C(C)(C)C5CC[C@]43C)C12 (stereo partly shown) [Example 46] | 59
C=C(C)[C@@H]1CC[C@]2(C(=O)NCCc3ccccc3C(=O)NCCCCC(=O)O)CC[C@]3(C)C(CCC4[C@@]5(C)CC[C@H](O)C(C)(C)C5CC[C@]43C)C12 (stereo partly shown) [Example 54] | 3400
C=C(C)[C@@H]1CC[C@]2(C(=O)NCCc3ccccc3C(=O)NCCCCCCC(=O)O)CC[C@]3(C)C(CCC4[C@@]5(C)CC[C@H](O)C(C)(C)C5CC[C@]43C)C12 (stereo partly shown) [Example 55] | 4700
C=C(C)[C@@H]1CC[C@]2(C(=O)NCCc3cccc(C(=O)NCC(=O)O)c3)CC[C@]3(C)C(CCC4[C@@]5(C)CC[C@H](O)C(C)(C)C5CC[C@]43C)C12 (stereo partly shown) [Example 64] | 220
C=C(C)[C@@H]1CC[C@]2(C(=O)NCCc3cccc(C(=O)NCC(=O)NC)c3)CC[C@]3(C)C(CCC4[C@@]5(C)CC[C@H](O)C(C)(C)C5CC[C@]43C)C12 (stereo partly shown) [Example 71] | 2700
C=C(C)[C@@H]1CC[C@]2(C(=O)NCCc3cccc(C(=O)N[C@@H](CCC(=O)OC)C(N)=O)c3)CC[C@]3(C)C(CCC4[C@@]5(C)CC[C@H](O)C(C)(C)C5CC[C@]43C)C12 (stereo partly shown) [Example 77] | 106
C=C(C)[C@@H]1CC[C@]2(C(=O)NCc3cccc(CNC(=O)c4ccc(C(=O)O)c(C(=O)O)c4)c3)CC[C@]3(C)C(CCC4[C@@]5(C)CC[C@H](O)C(C)(C)C5CC[C@]43C)C12 (stereo partly shown) [Example 78] | 7000
C=C(C)[C@@H]1CC[C@]2(C(=O)NCc3cccc(CNC(=O)c4cc(C(=O)O)ccc4C(=O)O)c3)CC[C@]3(C)C(CCC4[C@@]5(C)CC[C@H](O)C(C)(C)C5CC[C@]43C)C12 (stereo partly shown) [Example 79] | 412
C=C(C)[C@@H]1CC[C@]2(C(=O)NCc3cccc(C(=O)NCc4cccc(C(=O)O)c4C)c3C)CC[C@]3(C)C(CCC4[C@@]5(C)CC[C@H](O)C(C)(C)C5CC[C@]43C)C12 (stereo partly shown) [Example 81] | 6200
C=C(C)[C@@H]1CC[C@]2(C(=O)NCC(C)c3cccc(C(=O)NCc4cccc(C(=O)O)c4)c3)CC[C@]3(C)C(CCC4[C@@]5(C)CC[C@H](O)C(C)(C)C5CC[C@]43C)C12 (stereo partly shown) [Example 82] | 150
C=C(C)[C@@H]1CC[C@]2(C(=O)NCC(C)c3cccc(C(=O)NCc4cccc(C(=O)O)c4C)c3)CC[C@]3(C)C(CCC4[C@@]5(C)CC[C@H](O)C(C)(C)C5CC[C@]43C)C12 (stereo partly shown) [Example 83] | 270

SMILES | IC50 [nM]
C=C(C)[C@@H]1CC[C@]2(C(=O)Nc3cccc(C(=O)NCCc4cccc(C(=O)O)c4)c3)CC[C@]3(C)C(CCC4[C@@]5(C)CC[C@H](O)C(C)(C)C5CC[C@]43C)C12 (stereo partly shown) [Example 85] | 10000
C=C(C)[C@@H]1CC[C@]2(C(=O)NCc3cccc(C(=O)O)n3)CC[C@]3(C)C(CCC4[C@@]5(C)CC[C@H](O)C(C)(C)C5CC[C@]43C)C12 (stereo partly shown) [Example 86] | 3600
C=C(C)[C@@H]1CC[C@]2(C(=O)NCc3ccc(C(=O)OC)o3)CC[C@]3(C)C(CCC4[C@@]5(C)CC[C@H](O)C(C)(C)C5CC[C@]43C)C12 (stereo partly shown) [Example 87] | 1400
C=C(C)[C@@H]1CC[C@]2(C(=O)NCc3ccc(C(=O)O)o3)CC[C@]3(C)C(CCC4[C@@]5(C)CC[C@H](O)C(C)(C)C5CC[C@]43C)C12 (stereo partly shown) [Example 88] | 6900
C=C(C)[C@@H]1CC[C@]2(C(=O)NCc3ccc(C(=O)NCc4ccc(C(=O)OC)o4)o3)CC[C@]3(C)C(CCC4[C@@]5(C)CC[C@H](O)C(C)(C)C5CC[C@]43C)C12 (stereo partly shown) [Example 89] | 2300
C=C(C)[C@@H]1CC[C@]2(C(=O)NCc3ccc(C(=O)NCc4ccc(C(=O)O)o4)o3)CC[C@]3(C)C(CCC4[C@@]5(C)CC[C@H](O)C(C)(C)C5CC[C@]43C)C12 (stereo partly shown) [Example 90] | 6500
C=C(C)[C@@H]1CC[C@]2(C(=O)NCc3cccc(C(=O)NCc4cccc(C(=O)O)n4)n3)CC[C@]3(C)C(CCC4[C@@]5(C)CC[C@H](O)C(C)(C)C5CC[C@]43C)C12 (stereo partly shown) [Example 91] | 3900
C=C(C)[C@@H]1CC[C@]2(C(=O)NCc3ccc(F)c(C(=O)NCCc4ccc(C(=O)OC)cc4)c3)CC[C@]3(C)C(CCC4[C@@]5(C)CC[C@H](O)C(C)(C)C5CC[C@]43C)C12 (stereo partly shown) [Example 104] | 350
C=C(C)[C@@H]1CC[C@]2(C(=O)NCc3ccc(F)c(C(=O)NCCc4cccc(C(=O)OC)c4)c3)CC[C@]3(C)C(CCC4[C@@]5(C)CC[C@H](O)C(C)(C)C5CC[C@]43C)C12 (stereo partly shown) [Example 106] | 1300
C=C(C)[C@@H]1CC[C@]2(C(=O)NCc3ccc(F)c(C(=O)NCc4cccc(C(=O)OC)c4)c3)CC[C@]3(C)C(CCC4[C@@]5(C)CC[C@H](O)C(C)(C)C5CC[C@]43C)C12 (stereo partly shown) [Example 110] | 856
C=C(C)[C@@H]1CC[C@]2(C(=O)NCCc3ccc(OCCCCC(=O)O)cc3)CC[C@]3(C)C(CCC4[C@@]5(C)CC[C@H](O)C(C)(C)C5CC[C@]43C)C12 (stereo partly shown) [Example 112] | 317
C=C(C)[C@@H]1CC[C@]2(C(=O)NCCc3cccc(OCCCCC(=O)O)c3)CC[C@]3(C)C(CCC4[C@@]5(C)CC[C@H](O)C(C)(C)C5CC[C@]43C)C12 (stereo partly shown) [Example 113] | 721
C=C(C)[C@@H]1CC[C@]2(C(=O)N[C@@H](Cc3ccc(OCCCCC(=O)O)cc3)C(=O)O)CC[C@]3(C)C(CCC4[C@@]5(C)CC[C@H](O)C(C)(C)C5CC[C@]43C)C12 (stereo partly shown) [Example 115] | 10000
C=C(C)[C@@H]1CC[C@]2(C(=O)N[C@@H](Cc3ccc(OCCN4CCOC4=O)cc3)C(=O)O)CC[C@]3(C)C(CCC4[C@@]5(C)CC[C@H](O)C(C)(C)C5CC[C@]43C)C12 (stereo partly shown) [Example 116] | 177
C=C(C)[C@@H]1CC[C@]2(C(=O)NCc3cccc(N4CCN(Cc5cccc(C(=O)O)c5)CC4)c3)CC[C@]3(C)C(CCC4[C@@]5(C)CC[C@H](O)C(C)(C)C5CC[C@]43C)C12 (stereo partly shown) [Example 118] | 458
C=C(C)[C@@H]1CC[C@]2(C(=O)NCc3cccc(C(=O)NCc4ccc(OCCC(=O)O)c(C(=O)O)c4)c3)CC[C@]3(C)C(CCC4[C@@]5(C)CC[C@H](O)C(C)(C)C5CC[C@]43C)C12 (stereo partly shown) [Example 119] | 1100
C=C(C)[C@@H]1CC[C@]2(C(=O)NCc3cccc(C(=O)NCc4ccc(OCC(=O)O)c(C(=O)O)c4)c3)CC[C@]3(C)C(CCC4[C@@]5(C)CC[C@H](O)C(C)(C)C5CC[C@]43C)C12 (stereo partly shown) [Example 120] | 620
C=C(C)[C@@H]1CC[C@]2(C(=O)NCc3cccc(C(=O)NCc4ccc(OCCCN(C)CCN(C)C)c(C(=O)OC)c4)c3)CC[C@]3(C)C(CCC4[C@@]5(C)CC[C@H](O)C(C)(C)C5CC[C@]43C)C12 (stereo partly shown) [Example 122] | 265
C=C(C)[C@@H]1CC[C@]2(C(=O)NCc3cccc(-c4nc5cc(C(=O)O)ccc5[nH]4)c3)CC[C@]3(C)C(CCC4[C@@]5(C)CC[C@H](O)C(C)(C)C5CC[C@]43C)C12 (stereo partly shown) [Example 126] | 66
C=C(C)[C@@H]1CC[C@]2(C(=O)NCc3cccc(-c4nc(-c5cccc(C(=O)O)c5)no4)c3)CC[C@]3(C)C(CCC4[C@@]5(C)CC[C@H](O)C(C)(C)C5CC[C@]43C)C12 (stereo partly shown) [Example 127] | 768

Same assay, conditions: Human immunodeficiency virus 1, text statement, less than about 100 nm; read-out: P4-MAGI assay IC50

SMILES | IC50 [nM]
C=C(C)[C@@H]1CC[C@]2(C(=O)NCc3cccc(C(=O)NCCc4cccc(C(=O)O)c4)c3)CC[C@]3(C)C(CCC4[C@@]5(C)CC[C@H](O)C(C)(C)C5CC[C@]43C)C12 (stereo partly shown) [Example 11] | < 100
C=C(C)[C@@H]1CC[C@]2(C(=O)NCc3cccc(C(=O)NCCc4cc(OC)cc(OC)c4)c3)CC[C@]3(C)C(CCC4[C@@]5(C)CC[C@H](O)C(C)(C)C5CC[C@]43C)C12 (stereo partly shown) [Example 44] | < 100
C=C(C)[C@@H]1CC[C@]2(C(=O)NCc3cccc(C(=O)NCc4ccc(OC)cc4OC)c3)CC[C@]3(C)C(CCC4[C@@]5(C)CC[C@H](O)C(C)(C)C5CC[C@]43C)C12 (stereo partly shown) [Example 46] | < 100
C=C(C)[C@@H]1CC[C@]2(C(=O)NCc3cccc(-c4nc5cc(C(=O)O)ccc5[nH]4)c3)CC[C@]3(C)C(CCC4[C@@]5(C)CC[C@H](O)C(C)(C)C5CC[C@]43C)C12 (stereo partly shown) [Example 126] | < 100

Same assay, conditions: P4 cells, 24 hour incubation, β-galactosidase expression; read-out: P4-MAGI IC50

SMILES | IC50 [nM]
CC(O)(CO)[C@@H]1CC[C@]2(C(=O)NCc3cccc(C(=O)NCCCCC(=O)O)c3)CC[C@]3(C)C(CCC4[C@@]5(C)CC[C@H](O)C(C)(C)C5CC[C@]43C)C12 (single isomer, unassigned) [Example 140] | 1600
